Results from patent publication US12583870B2, “Azaheteroaryl compound and application thereof” (SHANGHAI BLUERAY BIOPHARMA CO., LTD., priority 2019, dated 2026).

Legend:
[1] = target: T1, EED protein (His6-tagged full-length) binding to H3K27me3 polypeptide (Homo sapiens, UniProt O75530); experiment: AlphaScreen evaluation of blocking the binding of EED to H3K27Me3; conditions: EED 60 nM, biotinylated H3K27me3 75 nM, 30 minutes incubation
T1 construct: His6-tagged full-length EED protein (441 amino acids)
T1 sequence (O75530 whole entry): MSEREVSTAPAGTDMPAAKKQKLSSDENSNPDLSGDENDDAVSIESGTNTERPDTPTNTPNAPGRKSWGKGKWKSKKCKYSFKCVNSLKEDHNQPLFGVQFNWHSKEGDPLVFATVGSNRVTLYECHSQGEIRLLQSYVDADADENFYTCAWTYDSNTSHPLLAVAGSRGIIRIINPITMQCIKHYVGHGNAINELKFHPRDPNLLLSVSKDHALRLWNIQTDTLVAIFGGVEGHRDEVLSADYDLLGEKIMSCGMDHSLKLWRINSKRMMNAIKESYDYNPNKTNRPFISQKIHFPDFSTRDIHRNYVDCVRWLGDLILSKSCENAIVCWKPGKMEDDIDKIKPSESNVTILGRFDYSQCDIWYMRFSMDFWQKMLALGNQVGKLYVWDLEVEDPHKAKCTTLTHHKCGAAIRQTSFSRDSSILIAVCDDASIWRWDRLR
Procedure: Firstly, compound solutions of different concentration gradients were prepared. Compound powder was dissolved in DMSO to prepare a mother liquor. 1.5 μl of the mother liquor of the compound was taken and added into 198.5 μl of a reaction buffer (25 mM HEPES (pH 8.0), 50 mM NaCl, 0.015% Tween 20, 0.5% BSA). The mixture was mixed uniformly. Then a 3-fold series dilution was carried out with the above-mentioned buffer containing 0.75% DMSO. 9 different test concentrations were provided for one same compound. 5 μL of compounds of different concentration gradients were taken and added into the ProxiPlate-384 Plus, White detection plate (PerkinElmer, 6008280) and two replicates in parallel were provided for each concentration gradient.
Secondly, a reaction for blocking the binding was carried out. The above-mentioned buffer was used to dilute His6-tagged full-length EED protein (441 amino acids) to 60 nM and biotinylated polypeptide fragment H3K27me3 (amino acids at positions 19-33) (Biotinylated-H3K27me3) to 75 nM. 5 μl of the polypeptide fragment at the concentration of 75 nM and 5 µl of the protein at the concentration of 60 nM were transferred to the detection wells containing the compound, respectively. The detection plate was sealed with the film and incubation was carried out at room temperature for 30 minutes.
Finally, the detection was carried out with the AlphaScreen method. Prior use, nickel chelate receptor beads and streptavidin donor beads (at the ratio of 1:1, Perkin Elmer, product number 6760619M) were mixed with the above-mentioned reaction buffer. Then 5 μl of the above-mentioned pre-mixed detection solution was added to each of the detection wells. The donor beads and receptor beads were both at a final concentration of 5 μg/mL. The detection plate was covered and sealed with tinfoil and placed in the dark at room temperature for 1 hour. The signal was read using the AlphaScreen detector on the Spectra max i3. AlphaScreen signals were standardlized based on the readings obtained from positive controls (maximum signal controls) and negative controls (minimum signal controls) to give the inhibition rates for compounds at different concentrations, and afterwards non-linear regression analysis was carried out using GraphPad Prism 5, inhibition curves were made based on the Dose-Response equation of Y=Bottom+(Top−Bottom)/(1+10^((Log IC50−X)*HillSlope)) and the IC50 values of each compound were obtained. […]

[2] = tested on: trimethylation level of histone H3K27 in G401 cells; experiment: ELISA (H3K27 trimethylation) analysis in G401 cells; assay type: cell-based; conditions: Homo sapiens, G-401, 72 hours, H3K27me3 standardized to H3
Summary of the method: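 Cells exposed 72 h to 10-point 3-fold dilutions, top 10 μM, 0.5% final DMSO. Acid-extracted histones assayed by ELISA (ECL) for H3K27me3, normalized to total H3 and to DMSO control; IC50 from dose-response fit.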

[3] = tested on: KARPAS-422 cells; experiment: Cell proliferation analysis, KARPAS-422, 13 days, CellTiter-Glo; assay type: cell-based; conditions: Homo sapiens, 312 h
Summary of the method: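 KARPAS-422 cells were treated with PRC2 inhibitors over 9 three-fold dilutions from 10 μM top (0.5% DMSO, duplicates) in RPMI-1640 with 15% FBS at 37 °C. Every 3–4 days cells were counted and reseeded at 1×10^4/well with fresh compound. Viability was read by CellTiter-Glo luminescence on day 13.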

Row | SMILES | IC50 [1] [µM] | IC50 [2] [µM] | IC50 [3] [µM]
1 | Fc1ccc2c(c1CNc1ncc(-c3cc(Cl)cn4cc(C(F)(F)F)nc34)c3nncn13)CCO2 | 0.0096 | 0.089 | –
2 | CC1=C(Cl)c2cc(-c3cnc(NCc4c(F)ccc5c4[C@H]4C[C@H]4O5)n4cnnc34)ccc2S1(=O)=O [3-chloro-5-(5-((((1aR,6bR)-5-fluoro-1a,6b-dihydro-1H-cyclopropa[b]benzofuran-6-yl)methyl)amino)-[1,2,4]triazolo[4,3-c]pyrimidin-8-yl)-2-methylbenzo[b]thiophene 1,1-dioxide] | 0.011 | 0.127 | –
3 | CC1=Cc2cc(-c3cnc(NCc4c(F)ccc5c4CCO5)n4cnnc34)cc(Cl)c2S1(=O)=O [7-chloro-5-(5-(((5-fluoro-2,3-dihydrobenzofuran-4-yl)methyl)amino)-[1,2,4]triazolo[4,3-c]pyrimidin-8-yl)-2-methylbenzo[b]thiophene 1,1-dioxide] | 0.0039 | 0.026 | –
4 | Cc1ccc(-c2cnc(NCc3c(F)ccc4c3CCO4)n3cnnc23)c2ncc(C(=O)O)n12 [8-(5-(((5-fluoro-2,3-dihydrobenzofuran-4-yl)methyl)amino)-[1,2,4]triazolo[4,3-c]pyrimidin-8-yl)-5-methylimidazo[1,2-a]pyridine-3-carboxylic acid] | 0.0054 | 0.004 | –
5 | Fc1ccc2c(c1CNc1ncc(-c3ccc(C(F)(F)F)n4ncnc34)c3nncn13)CCO2 [N-((5-fluoro-2,3-dihydrobenzofuran-4-yl)methyl)-8-(5-(trifluoromethyl)-[1,2,4]triazolo[1,5-a]pyridin-8-yl)-[1,2,4]triazolo[4,3-c]pyrimidin-5-amine] | – | 0.0069 | 0.036
6 | COc1ccc(-c2cnc(NCc3c(F)ccc4c3CCO4)n3cnnc23)c2ncnn12 [N-((5-fluoro-2,3-dihydrobenzofuran-4-yl)methyl)-8-(5-methoxy-[1,2,4]triazolo[1,5-a]pyridin-8-yl)-[1,2,4]triazolo[4,3-c]pyrimidin-5-amine] | – | 0.0032 | 0.0011
7 | Cc1ncc(-c2cnc(NCc3c(F)ccc4c3CCO4)n3cnnc23)c2ncnn12 [N-((5-fluoro-2,3-dihydrobenzofuran-4-yl)methyl)-8-(5-methyl-[1,2,4]triazolo[1,5-c]pyrimidin-8-yl)-[1,2,4]triazolo[4,3-c]pyrimidin-5-amine] | – | 0.0045 | 0.0025
8 | Cc1ccc(-c2cnc(NCc3c(F)ccc4c3CCO4)n3cnnc23)c2nnnn12 [N-((5-fluoro-2,3-dihydrobenzofuran-4-yl)methyl)-8-(5-methyltetrazolo[1,5-a]pyridin-8-yl)-[1,2,4]triazolo[4,3-c]pyrimidin-5-amine] | – | 0.0024 | 0.0025
9 | Cc1c(F)cc(-c2cnc(NCc3c(F)ccc4c3CCO4)n3cnnc23)c2ncnn12 [N-((5-fluoro-2,3-dihydrobenzofuran-4-yl)methyl)-8-(6-fluoro-5-methyl-[1,2,4]triazolo[1,5-a]pyridin-8-yl)-[1,2,4]triazolo[4,3-c]pyrimidin-5-amine] | – | 0.0036 | 0.0047
10 | CC(=O)NCc1cnc2c(-c3cnc(NCc4c(F)ccc5c4CCO5)n4cnnc34)ccc(C)n12 [N-((8-(5-(((5-fluoro-2,3-dihydrobenzofuran-4-yl)methyl)amino)-[1,2,4]triazolo[4,3-c]pyrimidin-8-yl)-5-methylimidazo[1,2-a]pyridin-3-yl)methyl)acetamide] | – | 0.0024 | 0.0032
11 | Cc1ccc(-c2cnc(NCc3c(F)ccc4c3[C@H]3C[C@H]3O4)n3cnnc23)c2nccn12 [N-(((1aR,6bR)-5-fluoro-1a,6b-dihydro-1H-cyclopropa[b]benzofuran-6-yl)methyl)-8-(5-methylimidazo[1,2-a]pyridin-8-yl)-[1,2,4]triazolo[4,3-c]pyrimidin-5-amine] | – | 0.0012 | 0.0009

Other lines, results leading:

Row | IC50 [1] [µM] | IC50 [2] [µM] | IC50 [3] [µM] | SMILES
12 | 0.0092 | 0.0035 | – | Fc1ccc2c(c1CNc1ncc(-c3cccn4c(F)cnc34)c3nncn13)CCO2
13 | 0.186 | 0.075 | – | O=S1(=O)C=c2cc(-c3cnc(NCc4c(F)ccc5c4[C@H]4C[C@H]4O5)n4cnnc34)ccc2=C1F [1-fluoro-5-(5-((((1aR,6bR)-5-fluoro-1a,6b-dihydro-1H-cyclopropa[b]benzofuran-6-yl)methyl)amino)-[1,2,4]triazolo[4,3-c]pyrimidin-8-yl)benzo[c]thiophene 2,2-dioxide]
14 | 0.0052 | – | – | Fc1ccc2c(c1CNc1ncc(C3=CC=CN4CCN=C34)c3nncn13)CCO2 [8-(2,3-dihydroimidazo[1,2-a]pyridin-8-yl)-N-((5-fluoro-2,3-dihydrobenzofuran-4-yl)methyl)-[1,2,4]triazolo[4,3-c]pyrimidin-5-amine]
15 | 0.0051 | 0.329 | – | O=C(O)c1cnc2c(-c3cnc(NCc4c(F)ccc5c4CCO5)n4cnnc34)cccn12 [8-(5-(((5-fluoro-2,3-dihydrobenzofuran-4-yl)methyl)amino)-[1,2,4]triazolo[4,3-c]pyrimidin-8-yl)imidazo[1,2-a]pyridine-3-carboxylic acid]
16 | 0.0912 | 0.091 | – | CCOC(=O)c1c(O)nc2c(-c3cnc(NCc4c(F)ccc5c4CCO5)n4cnnc34)cc(F)cn12 [Ethyl 6-fluoro-8-(5-(((5-fluoro-2,3-dihydrobenzofuran-4-yl)methyl)amino)-[1,2,4]triazolo[4,3-c]pyrimidin-8-yl)-2-hydroxyimidazo[1,2-a]pyridine-3-carboxylate]
17 | – | 0.0027 | 0.0032 | Fc1ccc2c(c1CNc1ncc(-c3ccc(N4CCCC4)n4ncnc34)c3nncn13)CCO2 [N-((5-fluoro-2,3-dihydrobenzofuran-4-yl)methyl)-8-(5-(pyrrolidin-1-yl)-[1,2,4]triazolo[1,5-a]pyridin-8-yl)-[1,2,4]triazolo[4,3-c]pyrimidin-5-amine]
18 | – | 0.0106 | 0.007 | Fc1ccc2c(c1CNc1ncc(-c3ccc(C(F)(F)F)n4ccnc34)c3nncn13)CCO2 [N-((5-fluoro-2,3-dihydrobenzofuran-4-yl)methyl)-8-(5-(trifluoromethyl)imidazo[1,2-a]pyridin-8-yl)-[1,2,4]triazolo[4,3-c]pyrimidin-5-amine]
19 | – | 0.0017 | 0.0018 | Cc1ccc(-c2cnc(NCc3c(F)ccc4c3CCO4)n3cnnc23)c2ncnn12 [N-((5-fluoro-2,3-dihydrobenzofuran-4-yl)methyl)-8-(5-methyl-[1,2,4]triazolo[1,5-a]pyridin-8-yl)-[1,2,4]triazolo[4,3-c]pyrimidin-5-amine]
20 | – | 0.0002 | 0.0002 | Cc1ccc(-c2cnc(NCc3c(F)ccc4c3CCO4)n3cnnc23)c2nncn12 [N-((5-fluoro-2,3-dihydrobenzofuran-4-yl)methyl)-8-(5-methyl-[1,2,4]triazolo[4,3-a]pyridin-8-yl)-[1,2,4]triazolo[4,3-c]pyrimidin-5-amine]
21 | – | 0.0011 | 0.0007 | Fc1ccc2c(c1CNc1ncc(-c3ccc(N4CCOCC4)n4ncnc34)c3nncn13)CCO2 [N-((5-fluoro-2,3-dihydrobenzofuran-4-yl)methyl)-8-(5-morpholino-[1,2,4]triazolo[1,5-a]pyridin-8-yl)-[1,2,4]triazolo[4,3-c]pyrimidin-5-amine]
22 | – | 0.0012 | 0.0017 | COc1cc(-c2cnc(NCc3c(F)ccc4c3CCO4)n3cnnc23)c2ncnn2c1 [N-((5-fluoro-2,3-dihydrobenzofuran-4-yl)methyl)-8-(6-methoxy-[1,2,4]triazolo[1,5-a]pyridin-8-yl)-[1,2,4]triazolo[4,3-c]pyrimidin-5-amine]
23 | – | 0.0024 | 0.0044 | Cc1ccc(-c2cnc(NCc3c(F)ccc4c3[C@H]3C[C@H]3O4)n3cnnc23)c2ncnn12 [N-(((1aR,6bR)-5-fluoro-1a,6b-dihydro-1H-cyclopropa[b]benzofuran-6-yl)methyl)-8-(5-methyl-[1,2,4]triazolo[1,5-a]pyridin-8-yl)-[1,2,4]triazolo[4,3-c]pyrimidin-5-amine]
